Test results: patent publication US10392428B2, “GLP-1 derivatives and uses thereof” (Novo Nordisk A/S, priority 2014, dated 2019)
Non-standard residues stand in square brackets, D forms with d. Residues, ends and D or L forms follow the SMILES beside them. Groups on a side chain read outwards from the residue. *: point of attachment. X2 = O=C(O)CCCCCCCCCCCCCCCCCCC(=O)NC[C@H]1CC[C@H](C(=O)N[C@@H](CCC(=O)NCCCC[C@H](NC(=O)CC[C@H](NC(=O)[C@H]2CC[C@H](CNC(=O)CCCCCCCCCCCCCCCCCCC(=O)O)CC2)C(=O)O)C(=O)*)C(=O)O)CC1; Desaminohistidyl = O=C(CCc1c[nH]cn1)*; AEEA = NCCOCCOCC(=O)O; Aib = CC(C)(N)C(=O)O

Assays:
[1] = biological target: T1, human GLP-1 receptor (Homo sapiens, UniProt P43220); assay: In vitro potency: CRE luciferase reporter gene assay in BHK cells expressing the human GLP-1 receptor; format: cell-based; settings: whole cell reporter gene assay, 3 h incubation, average of at least two replicates
T1 construct: expressed in transfected cells; host or cells: membrane preparation from BHK cells, clone FCW467-12A (parent line BHKTS13)
T1 sequence (P43220 24-463): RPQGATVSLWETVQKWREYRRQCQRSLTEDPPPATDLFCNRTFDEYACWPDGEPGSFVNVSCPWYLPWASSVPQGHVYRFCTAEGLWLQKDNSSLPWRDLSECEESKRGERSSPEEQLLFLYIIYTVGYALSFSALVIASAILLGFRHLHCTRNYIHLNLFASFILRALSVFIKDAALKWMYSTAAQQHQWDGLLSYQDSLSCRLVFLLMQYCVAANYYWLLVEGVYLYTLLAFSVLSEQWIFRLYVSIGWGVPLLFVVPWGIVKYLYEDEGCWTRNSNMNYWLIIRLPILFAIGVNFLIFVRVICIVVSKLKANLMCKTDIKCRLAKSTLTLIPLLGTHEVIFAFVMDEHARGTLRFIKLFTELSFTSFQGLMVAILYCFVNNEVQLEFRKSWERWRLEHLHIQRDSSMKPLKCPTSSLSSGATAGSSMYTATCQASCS
Protocol: The purpose of this example is to test the activity, or potency, of the GLP-1 derivatives in vitro. The in vitro potency is the measure of human GLP-1 receptor activation in a whole cell assay.
In vitro potency was determined by measuring the response of the human GLP-1 receptor in a reporter gene assay. The assay was performed in a stably transfected BHK cell line that expresses the human GLP-1 receptor and contains the DNA for the cAMP response element (CRE) coupled to a promoter and the gene for firefly luciferase (CRE luciferase). When the human GLP-1 receptor is activated it results in the production of cAMP, which in turn results in the luciferase protein being expressed. When assay incubation is completed the luciferase substrate (luciferin) is added and the enzyme converts luciferin to oxyluciferin to produce bioluminescence. The luminescence is measured as the readout for the assay.
The cells were cultured at 5% CO2 in cell culture medium. They were aliquoted and stored in liquid nitrogen. Before each assay an aliquot was taken up and washed twice in PBS before being suspended at the desired concentration in the assay specific buffer.
Assay medium consisted of DMEM w/o phenol red, 10 mM Hepes and 1χ Glutamax. The assay buffer consisted of 2% ovalbumin and 0.2% Pluronic F-68 in assay medium.
1) Cell stocks were thawed in a 37° C. water bath.
2) Cells were washed three times in PBS.
3) Cells were counted and adjusted to 5×10^3 cells/50 μl (1×10^5 cells/ml) in assay medium. A 50 μl aliquot of cells was transferred to each well in the assay plate.
4) Stocks of the test compounds and reference compounds were diluted to a concentration of 0.2 μM in assay buffer. […] 8) A 100 μl aliquot of steadylite plus reagent was added to each well of the assay plate. […] 10) Each assay plate was read in a BioTek Synergy 2 Multi-Mode Reader.
The data from the BioTek Synergy 2 Multi-Mode Reader were transferred to GraphPad Prism software. […]
A minimum of two replicates was measured for each sample. The reported EC50 values are averages of all of the measured values for each compound.

[2] = biological target: T1, human GLP-1 receptor; assay: GLP-1 receptor binding: competitive binding assay (125I-GLP-1, SPA) on isolated membranes at low and high HSA
Protocol: The purpose of this example is to test the receptor binding of the GLP-1 derivatives in vitro. The receptor binding is a measure of affinity of a derivative for the human GLP-1 receptor.
Each derivative is added in a series of concentrations to isolated membranes containing the human GLP-1 receptor and displacement of the labelled ligand is monitored. The receptor binding is reported as the concentration at which half of the labelled ligand is displaced from the receptor, the IC50 value.
Buffer 1 consisted of 20 mM Na-HEPES plus 10 mM EDTA and pH was adjusted to 7.4. Buffer 2 consisted of 20 mM Na-HEPES plus 0.1 mM EDTA and pH was adjusted to 7.4. Assay buffer consisted of 50 mM HEPES supplemented with 5 mM EGTA, 5 mM MgCl2, 0.005% Tween 20 and pH was adjusted to 7.4. An 8% albumin stock consisted of HSA dissolved at 8% (w/v) in assay buffer. An 0.02% albumin stock consisted of HSA dissolved at 0.02% (w/v) in assay buffer.
The cells express the human GLP-1 receptor.
The cells were grown at 5% CO2 in DMEM, 10% fetal calf serum, 1% Pen/Strep (Penicillin/Streptomycin) and 1.0 mg/ml of the selection marker G418.
To make a membrane preparation the cells were grown to approximately 80% confluence. The cells were washed twice in phosphate-buffered saline and harvested. The cells were pelleted using a brief centrifugation and the cell pellet was kept on ice. […] The homogenate was centrifuged for 15 minutes. The pellet was re-suspended (homogenised) in 10 ml buffer 2 and centrifuged. This step was repeated once more. The resulting pellet was re-suspended in buffer 2 and the protein concentration was determined. The membranes were aliquoted and stored at minus 80° C.
For the receptor binding assay in the presence of low HSA (0.005%) 50 μl of the assay buffer was added to each well of an assay plate.
For the receptor binding assay in the presence of high HSA (2%) 50 μl of the 8% albumin stock was added to each well of an assay plate.
Cell membrane aliquots were thawed and diluted to their working concentration. Fifty μl were added to each well in the assay plate.
WGA SPA beads were suspended in assay buffer at 20 mg/ml. The suspension was diluted to 10 mg/ml in assay buffer just prior to addition to the assay plate. Fifty μl were added to each well in the assay plate.
A 25 μl aliquot was reserved for measuring total counts/well.
The assay plate was incubated for 2 h at 30° C.
The assay plate was centrifuged for 10 min.
The assay plate was read in a Packard TopCount NXT instrument.
The data from the TopCount instrument were transferred to Graph Pad Prism software. Individual replicates were analysed using non-linear regression. IC50 values were calculated by the software and reported in nM. The reported values are averages of all of the measured values for each compound.

[3] = Pharmacokinetic study in minipigs (i.v.); settings: male, Göttingen, minipig, in vivo, iv; minipigs, i.v., 15 nmol/kg; harmonic mean; read-out: Terminal half-live (converted)
Protocol: The derivatives of Examples 12, 14, and 15 were dosed 2 nmol/kg. The derivatives of Examples 1 and 2 were dosed 15 nmol/kg.

[4] = High HSA IC50 (nM), high HSA (2.0% final assay concentration)

Structure (SMILES) | EC50 [1] | IC50 [2, 4] | IC50 ([2]; Low HSA IC50 (nM), low HSA (max. 0.001% final assay concentration)) | half-life [3]
CC[C@H](C)[C@H](NC(=O)[C@H](Cc1ccccc1)NC(=O)[C@H](CCC(=O)O)NC(=O)[C@H](CCCNC(=N)N)NC(=O)[C@H](C)NC(=O)[C@H](C)NC(=O)[C@H](CCC(N)=O)NC(=O)[C@H](CCC(=O)O)NC(=O)[C@H](CCC(=O)O)NC(=O)[C@H](CC(C)C)NC(=O)[C@H](Cc1ccc(O)cc1)NC(=O)[C@H](CO)NC(=O)[C@H](CO)NC(=O)[C@@H](NC(=O)[C@H](CC(=O)O)NC(=O)[C@H](CO)NC(=O)[C@@H](NC(=O)[C@H](Cc1ccccc1)NC(=O)[C@@H](NC(=O)CNC(=O)[C@H](CCC(=O)O)NC(=O)C(C)(C)NC(=O)[C@@H](N)Cc1c[nH]cn1)[C@@H](C)O)[C@@H](C)O)C(C)C)C(=O)N[C@@H](C)C(=O)N[C@@H](Cc1c[nH]c2ccccc12)C(=O)N[C@@H](CC(C)C)C(=O)N[C@H](C(=O)N[C@@H](CCCNC(=N)N)C(=O)NCC(=O)N[C@@H](CCCNC(=N)N)C(=O)N[C@@H](CCCCNC(=O)COCCOCCNC(=O)COCCOCCNC(=O)[C@H](CCCCNC(=O)CC[C@H](NC(=O)[C@H]1CC[C@H](CNC(=O)CCCCCCCCCCCCCCCCCCC(=O)O)CC1)C(=O)O)NC(=O)CC[C@H](NC(=O)[C@H]1CC[C@H](CNC(=O)CCCCCCCCCCCCCCCCCCC(=O)O)CC1)C(=O)O)C(=O)O)C(C)C [Example 11, N{Epsilon-37}-[2-[2-[2-[[2-[2-[2-[[(2S)-2,6-bis[[(4S)-4-carboxy-4-[[4-[(19-carboxynonadecanoylamino)methyl]cyclohexanecarbonyl]amino]butanoyl]amino]hexanoyl]amino]ethoxy]ethoxy]acetyl]amino]ethoxy]ethoxy]acetyl]-[Aib8,Glu22,Arg26,Arg34,Lys37]-GLP-1-(7-37)-peptide] | 0.00013 µM | 150 nM | 1.5 nM | –
CC[C@H](C)[C@H](NC(=O)[C@H](Cc1ccccc1)NC(=O)[C@H](CCC(=O)O)NC(=O)[C@H](CCCNC(=N)N)NC(=O)[C@H](C)NC(=O)[C@H](C)NC(=O)[C@H](CCC(N)=O)NC(=O)[C@H](CCC(=O)O)NC(=O)[C@H](CCC(=O)O)NC(=O)[C@H](CC(C)C)NC(=O)[C@H](Cc1ccc(O)cc1)NC(=O)[C@H](CO)NC(=O)[C@H](CO)NC(=O)[C@@H](NC(=O)[C@H](CC(=O)O)NC(=O)[C@H](CO)NC(=O)[C@@H](NC(=O)[C@H](Cc1ccccc1)NC(=O)[C@@H](NC(=O)CNC(=O)[C@H](CCC(=O)O)NC(=O)C(C)(C)NC(=O)[C@@H](N)Cc1c[nH]cn1)[C@@H](C)O)[C@@H](C)O)C(C)C)C(=O)N[C@@H](C)C(=O)N[C@@H](Cc1c[nH]c2ccccc12)C(=O)N[C@@H](CC(C)C)C(=O)N[C@H](C(=O)N[C@@H](CCCNC(=N)N)C(=O)NCC(=O)N[C@@H](CCCNC(=N)N)C(=O)N[C@@H](CCCCNC(=O)[C@@H](N)CCCCNC(=O)[C@@H](N)CCCCNC(=O)[C@H](CCCCNC(=O)CC[C@H](NC(=O)[C@H]1CC[C@H](CNC(=O)CCCCCCCCCCCCCCCCCCC(=O)O)CC1)C(=O)O)NC(=O)CC[C@H](NC(=O)[C@H]1CC[C@H](CNC(=O)CCCCCCCCCCCCCCCCCCC(=O)O)CC1)C(=O)O)C(=O)O)C(C)C [Example 9, N{Epsilon-37}-[(2S)-2-amino-6-[[(2S)-2-amino-6-[[(2S)-2,6-bis[[(4S)-4-carboxy-4-[[4-[(19-carboxynonadecanoylamino)methyl]cyclohexanecarbonyl]amino]butanoyl]amino]hexanoyl]amino]hexanoyl]amino]hexanoyl]-[Aib8,Glu22,Arg26,Arg34,Lys37]-GLP-1-(7-37)-peptide] | – | 150 nM | – | –
CC[C@H](C)[C@H](NC(=O)[C@H](Cc1ccccc1)NC(=O)[C@H](CCC(=O)O)NC(=O)[C@H](CCCNC(=N)N)NC(=O)[C@H](C)NC(=O)[C@H](C)NC(=O)[C@H](CCC(N)=O)NC(=O)[C@H](CCC(=O)O)NC(=O)[C@H](CCC(=O)O)NC(=O)[C@H](CC(C)C)NC(=O)[C@H](Cc1ccc(O)cc1)NC(=O)[C@H](CO)NC(=O)[C@H](CO)NC(=O)[C@@H](NC(=O)[C@H](CC(=O)O)NC(=O)[C@H](CO)NC(=O)[C@@H](NC(=O)[C@H](Cc1ccccc1)NC(=O)[C@@H](NC(=O)CNC(=O)[C@H](CCC(=O)O)NC(=O)C(C)(C)NC(=O)[C@@H](N)Cc1c[nH]cn1)[C@@H](C)O)[C@@H](C)O)C(C)C)C(=O)N[C@@H](C)C(=O)N[C@@H](Cc1c[nH]c2ccccc12)C(=O)N[C@@H](CC(C)C)C(=O)N[C@H](C(=O)N[C@@H](CCCNC(=N)N)C(=O)NCC(=O)N[C@@H](CCCNC(=N)N)C(=O)N[C@@H](CCCCNC(=O)COCCOCCNC(=O)[C@H](CCCCNC(=O)COCCOCCNC(=O)COCCOCCNC(=O)CC[C@H](NC(=O)[C@H]1CC[C@H](CNC(=O)CCCCCCCCCCCCCCCCCCC(=O)O)CC1)C(=O)O)NC(=O)COCCOCCNC(=O)COCCOCCNC(=O)CC[C@H](NC(=O)[C@H]1CC[C@H](CNC(=O)CCCCCCCCCCCCCCCCCCC(=O)O)CC1)C(=O)O)C(=O)O)C(C)C [Example 1, N{Epsilon-37}-[2-[2-[2-[[(2S)-2,6-bis[[2-[2-[2-[[2-[2-[2-[[(4S)-4-carboxy-4-[[4-[(19-carboxynonadecanoylamino)methyl]cyclohexanecarbonyl]amino]butanoyl]amino]ethoxy]ethoxy]acetyl]amino]ethoxy]ethoxy]acetyl]amino]hexanoyl]amino]ethoxy]ethoxy]acetyl]-[Aib8,Glu22,Arg26,Arg34,Lys37]-GLP-1-(7-37)-peptide] | – | 140 nM | – | 162 h
CC[C@H](C)[C@H](NC(=O)[C@H](Cc1ccccc1)NC(=O)[C@H](CCC(=O)O)NC(=O)[C@H](CCCNC(=N)N)NC(=O)[C@H](C)NC(=O)[C@H](C)NC(=O)[C@H](CCC(N)=O)NC(=O)[C@H](CCC(=O)O)NC(=O)[C@H](CCC(=O)O)NC(=O)[C@H](CC(C)C)NC(=O)[C@H](Cc1ccc(O)cc1)NC(=O)[C@H](CO)NC(=O)[C@H](CO)NC(=O)[C@@H](NC(=O)[C@H](CC(=O)O)NC(=O)[C@H](CO)NC(=O)[C@@H](NC(=O)[C@H](Cc1ccccc1)NC(=O)[C@@H](NC(=O)CNC(=O)[C@H](CCC(=O)O)NC(=O)C(C)(C)NC(=O)CCc1cnc[nH]1)[C@@H](C)O)[C@@H](C)O)C(C)C)C(=O)N[C@@H](C)C(=O)N[C@@H](Cc1c[nH]c2ccccc12)C(=O)N[C@@H](CC(C)C)C(=O)N[C@H](C(=O)N[C@@H](CCCNC(=N)N)C(=O)NCC(=O)N[C@@H](CCCNC(=N)N)C(=O)NCC(=O)NCC(=O)N[C@@H](CCCCNC(=O)COCCOCCNC(=O)COCCOCCNC(=O)COCCOCCNC(=O)COCCOCCNC(=O)[C@H](CCCCNC(=O)CC[C@H](NC(=O)[C@H]1CC[C@H](CNC(=O)CCCCCCCCCCCCCCCCCCC(=O)O)CC1)C(=O)O)NC(=O)CC[C@H](NC(=O)[C@H]1CC[C@H](CNC(=O)CCCCCCCCCCCCCCCCCCC(=O)O)CC1)C(=O)O)C(=O)O)C(C)C [Example 6, [Imp7,Aib8,Glu22,Arg26,Arg34]-GLP-1-(7-37)-peptidyl-Gly-N{Epsilon}[2-[2-[2-[[2-[2-[2-[[2-[2-[2-[[2-[2-[2-[[(2S)-2,6-bis[[(4S)-4-carboxy-4-[[4-[(19-carboxynonadecanoylamino)methyl]cyclohexanecarbonyl]amino]butanoyl]amino]hexanoyl]amino]ethoxy]ethoxy]acetyl]amino]ethoxy]ethoxy]acetyl]amino]ethoxy]ethoxy]acetyl]amino]ethoxy]ethoxy]acetyl]Lys] (Desaminohistidyl-[Aib]EGTFTSDVSSYLEEQAAREFIAWLVRGRGGK([AEEA-AEEA-AEEA-AEEA-X2])-OH; C-terminus assumed) | 0.00015 µM | 140 nM | – | –
